# According to US20190208778A1, “INSECT REPELLENT SURFACE COMPOSITION” (ENVANCE TECHNOLOGIES, LLC, priority 2012, published 2019):
# Tested on: Musca domestica
# Assay: House fly surface repellent bioassay (treated floor tile bait stations)
# Assay type: in vivo
# Conditions: house flies
# Procedure: 100 adult house flies (Musca domestica) were placed into the assay then exposed to treated bait stations, a control and test treatment. Fly response to the bait stations were recorded at predetermined time points with a video camera. Percent repellency was calculated and comparisons between treatments were made. All test house fly specimens were taken from in-house laboratory reared colonies, and were confirmed alive and in good condition prior to testing. No specimens showing any visible signs of stress, physical damage or pathogen infection were used in the study. When applicable a 1:1 male to female sex ratio was used to ensure equal susceptibility. The test arena was assembled and prepared prior to test initiation. The test arena consisted of a large 73.66 cm×73.66 cm×73.66 cm PVC frame work fitted with Thrips screening. At the top of the enclosed arena a USB powered video camera was suspended and centered over a 62.87 cm×62.87 cm section of white ceiling tile divided (marked with pencil) into equal quadrants. The bait stations were constructed as follows: A 1⁄4'' diameter hole was drilled in the center of a 10.8 cm by 10.8 cm white glazed clay tile. A 50 ml Falcon tube cap was affixed to the bottom of the tile over the hole to create a reservoir for the bait to be contained. Bait was pipetted into the reservoir then a cotton wick in inserted into the hole preventing flies from entering the reservoir and allowing bait to wick to the surface. The bait was at a 4:1:1 ratio of water, sugar, and coffee creamer. The chemical application method was as follows: Material was pipette applied to tile surface and allowed approximately 1 hour to dry. The chemical volume applied was 34 μl. Fly specimens were exposed for 24 hours. Assays were performed with a minimum of three replicates. The Tyra Tech Insect repellent surface cleaning/washing composition was comprised of 14.8% Active Ingredient (AI) blend and 85.2% other ingredients. It was confirmed that video cameras were appropriately viewing the center of the ceiling tile with a computer and computer program (such as […]). Flies were anesthetized with CO2 and then 100 flies were placed into a clean container. Insects were allowed to recover and acclimate to testing conditions for 1 hour prior to test initiation by placing and opening container with flies into assembled assay arena and allowing flies to disperse. All surfaces of bait station were cleaned with ethanol and allowed to dry. A pipette were used to treat the tile surface with the test material and treatment was spread over entire surface with pipette tip; material was allowed to dry for approximately 1 hour prior to test initiation. When dry, 5 ml of bait was pipetted into the reservoir. A cotton wick was inserted into the hole to ensuring that the top of the wick sits flush with the tile surface. A treated and a control bait station was placed into the test arena, one each centered within a randomly designated quadrant opposite of each other into a testing arena. Cameras were allowed to capture fly response over a 24 hour time period. Images were transferred to computer and data were analyzed. Photos were taken at each of the following time points: 15 minutes, 30 minutes, 1, 2, 3, 4, 5, 6, 7, 8, 12, 18 and 24 hours post introduction of treatment. At the conclusion of the test the image files were reviewed and the number of flies at each bait station was counted and recorded for both treatment and control. Average percent repellency was used as a standard measure of repellency of the treatments against insect species. Percent repellency was calculated for each treatment replicate by the following formula: Mean percent repellency for each treatment based on the data of the replicates at the given observation time points: Repellency between treatments was then compared using SAS version 9.3 to calculate the repeated measures ANOVA with time as repeated measure. Tukey's correction was used to ensure a remained at 0.05.
structure (smiles),measurement,setting,value
CCN(CC)C(=O)c1cccc(C)c1 [DEET],Average mean percent repellency over 24 hours,,57.1%
same,Median mean percent repellency over 24 hours,,61.3%
same,statistical comparison of repellency between treatments,"repeated measures ANOVA, Tukey's correction",significantly less repellent than any other treatment
same,mean percent repellency,time 0.25 h post introduction,66.7%
same,mean percent repellency,time 1 h,75.0%
same,mean percent repellency,time 2 h,0.0%
same,mean percent repellency,time 3 h,50.0%
same,mean percent repellency,time 4 h,50.0%
same,mean percent repellency,time 5 h,62.5%
same,mean percent repellency,time 6 h,22.2%
same,mean percent repellency,time 7 h,60.0%
same,mean percent repellency,time 8 h,70.6%
same,mean percent repellency,time 12 h,44.4%
same,mean percent repellency,time 18 h,83.3%
same,mean percent repellency,time 24 h,100.0%
